Laboratory results published in patent publication US10405547B2, “Substituted cyclic amides as herbicides” (FMC Corporation, priority 2015, dated 2019).

What was measured:
Type in all cases: in vivo
[1] = system: foxtail, giant (Setaria faberii); assay: Test A preemergence, giant foxtail; conditions: 0 to 100 scale (0 no effect, 100 complete control)
Outline: (§1)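 Visual injury scores (0 no effect to 100 complete control) taken about 10 days after treatment, relative to untreated plants. Treatments were directed soil spray at planting for preemergence, or foliar application to one- to two-leaf plants (2-10 cm) for postemergence, with surfactant-containing formulations in loam–sand pots.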

kochia (Kochia scoparia) [2] = assay: Test A postemergence, kochia; conditions: visual injury, 0 to 100 scale (0 no effect, 100 complete control), approximately 10 days
Outline: as §1

rice (Oryza sativa) = assay: Test B flooded paddy test, rice; conditions: 250 g ai/ha, applied to paddy water, visual rating after 13 to 15 days, scale 0 (no effect) to 100 (complete control)
Source text: (§2) At time of treatment, test pots were flooded to 3 cm above the soil surface, treated by application of test compounds directly to the paddy water, and then maintained at that water depth for the duration of the test. Treated plants and controls were maintained in a greenhouse for 13 to 15 days, after which time all species were compared to controls and visually evaluated. […] A dash (-) response means no test result.

[3] = system: galium (catchweed bedstraw, Galium aparine); assay: Test A postemergence, galium; conditions: visual injury, 0 to 100 scale (0 no effect, 100 complete control), approximately 10 days
Outline: as §1

[4] = system: ryegrass, Italian (Lolium multiflorum); assay: Test A postemergence, Italian ryegrass; conditions: visual injury, 0 to 100 scale (0 no effect, 100 complete control), approximately 10 days
Outline: as §1

kochia (Kochia scoparia) [5] = assay: Test A preemergence, kochia; conditions: 0 to 100 scale (0 no effect, 100 complete control)
Outline: as §1

[6] = system: sedge, umbrella (small-flower umbrella sedge, Cyperus difformis); assay: Test B flooded paddy test, umbrella sedge; conditions: 250 g ai/ha, applied to paddy water, visual rating after 13 to 15 days, scale 0 (no effect) to 100 (complete control)
Source text: as §2

[7] = system: foxtail, giant (Setaria faberii); assay: Test A postemergence, giant foxtail; conditions: visual injury, 0 to 100 scale (0 no effect, 100 complete control), approximately 10 days
Outline: as §1

[8] = system: barnyardgrass (Echinochloa crus-galli); assay: Test A preemergence, barnyardgrass; conditions: 0 to 100 scale (0 no effect, 100 complete control)
Outline: as §1

[9] = system: barnyardgrass (Echinochloa crus-galli); assay: Test B flooded paddy test, barnyardgrass; conditions: 250 g ai/ha, applied to paddy water, visual rating after 13 to 15 days, scale 0 (no effect) to 100 (complete control)
Source text: as §2

[10] = system: pigweed (Amaranthus retroflexus); assay: Test A preemergence, pigweed; conditions: 0 to 100 scale (0 no effect, 100 complete control)
Outline: as §1

[11] = system: ragweed (common ragweed, Ambrosia elatior); assay: Test A postemergence, ragweed; conditions: visual injury, 0 to 100 scale (0 no effect, 100 complete control), approximately 10 days
Outline: as §1

[12] = system: ryegrass, Italian (Lolium multiflorum); assay: Test A preemergence, Italian ryegrass; conditions: 0 to 100 scale (0 no effect, 100 complete control)
Outline: as §1

[13] = system: barnyardgrass (Echinochloa crus-galli); assay: Test A postemergence, barnyardgrass; conditions: visual injury, 0 to 100 scale (0 no effect, 100 complete control), approximately 10 days
Outline: as §1

[14] = system: ducksalad (Heteranthera limosa); assay: Test B flooded paddy test, ducksalad; conditions: 250 g ai/ha, applied to paddy water, visual rating after 13 to 15 days, scale 0 (no effect) to 100 (complete control)
Source text: as §2

[15] = system: blackgrass (Alopecurus myosuroides); assay: Test A postemergence, blackgrass; conditions: visual injury, 0 to 100 scale (0 no effect, 100 complete control), approximately 10 days
Outline: as §1

corn (Zea mays) = assay: Test A postemergence, corn; conditions: visual injury, 0 to 100 scale (0 no effect, 100 complete control), approximately 10 days
Outline: as §1

[16] = system: pigweed (Amaranthus retroflexus); assay: Test A postemergence, pigweed; conditions: visual injury, 0 to 100 scale (0 no effect, 100 complete control), approximately 10 days
Outline: as §1

[17] = system: ragweed (common ragweed, Ambrosia elatior); assay: Test A preemergence, ragweed; conditions: 0 to 100 scale (0 no effect, 100 complete control)
Outline: as §1

[18] = system: wheat (Triticum aestivum); assay: Test A postemergence, wheat; conditions: visual injury, 0 to 100 scale (0 no effect, 100 complete control), approximately 10 days
Outline: as §1

| Structure (SMILES) | Plant response rating, Foxtail, Giant ([1]; 125 g ai/ha) | Plant response rating, Foxtail, Giant ([1]; 500 g ai/ha) | Plant response rating, Kochia (kochia (Kochia scoparia) [2]; 125 g ai/ha) | Plant response rating, Kochia (kochia (Kochia scoparia) [2]; 500 g ai/ha) | Plant response rating, Rice (Flood) (rice (Oryza sativa)) | Plant response rating, Galium ([3]; 125 g ai/ha) | Plant response rating, Galium ([3]; 500 g ai/ha) | Plant response rating, Ryegrass, Italian ([4]; 125 g ai/ha) | Plant response rating, Ryegrass, Italian ([4]; 500 g ai/ha) | Plant response rating, Kochia (kochia (Kochia scoparia) [5]; 125 g ai/ha) | Plant response rating, Kochia (kochia (Kochia scoparia) [5]; 500 g ai/ha) | Plant response rating, Sedge, Umbrella (Flood) [6] | Plant response rating, Foxtail, Giant ([7]; 125 g ai/ha) | Plant response rating, Foxtail, Giant ([7]; 500 g ai/ha) | Plant response rating, Barnyardgrass ([8]; 125 g ai/ha) | Plant response rating, Barnyardgrass ([8]; 500 g ai/ha) | Plant response rating, Barnyardgrass (Flood) [9] | Plant response rating, Pigweed ([10]; 125 g ai/ha) | Plant response rating, Pigweed ([10]; 500 g ai/ha) | Plant response rating, Ragweed ([11]; 125 g ai/ha) | other results |
| --- | --- | --- | --- | --- | --- | --- | --- | --- | --- | --- | --- | --- | --- | --- | --- | --- | --- | --- | --- | --- | --- |
| O=C1NCC(c2cccc(Oc3ncc(F)cn3)c2)C1C(=O)Nc1ccccc1F (single isomer, unassigned) [Compound 39] | 90 | 100 | 0 | 0 | 0 | 0 | 30 | 0 | 20 | 30 | 50 | 0 | 70 | 80 | 70 | 90 | 0 | 0 | 0 | 0 | Plant response rating, Ragweed ([11]; 500 g ai/ha): 30; Plant response rating, Ryegrass, Italian ([12]; 125 g ai/ha): 0; Plant response rating, Ryegrass, Italian ([12]; 500 g ai/ha): 60; Plant response rating, Barnyardgrass ([13]; 125 g ai/ha): 70; Plant response rating, Barnyardgrass ([13]; 500 g ai/ha): 100; Plant response rating, Ducksalad (Flood) [14]: 75; Plant response rating, Blackgrass ([15]; 125 g ai/ha): 0; Plant response rating, Blackgrass ([15]; 500 g ai/ha): 40; Plant response rating, Corn (corn (Zea mays); 125 g ai/ha): 30; Plant response rating, Corn (corn (Zea mays); 500 g ai/ha): 70; Plant response rating, Pigweed ([16]; 125 g ai/ha): 0; Plant response rating, Pigweed ([16]; 500 g ai/ha): 20; Plant response rating, Ragweed ([17]; 125 g ai/ha): 0; Plant response rating, Ragweed ([17]; 500 g ai/ha): 50; Plant response rating, Wheat ([18]; 125 g ai/ha): 0; Plant response rating, Wheat ([18]; 500 g ai/ha): 60 |
| CN1CC(c2cccc(Oc3ccc(C(F)(F)F)cn3)c2)C(C(=O)Nc2ccccc2F)C1=O (single isomer, unassigned) [Compound 43] | 90 | 90 | 40 | 60 | 15 | 70 | 80 | 0 | 30 | 30 | 30 | 0 | 80 | 80 | 80 | 80 | 50 | 40 | 80 | 0 | Plant response rating, Ragweed ([11]; 500 g ai/ha): 0; Plant response rating, Ryegrass, Italian ([12]; 125 g ai/ha): 30; Plant response rating, Ryegrass, Italian ([12]; 500 g ai/ha): 80; Plant response rating, Barnyardgrass ([13]; 125 g ai/ha): 90; Plant response rating, Barnyardgrass ([13]; 500 g ai/ha): 90; Plant response rating, Ducksalad (Flood) [14]: 98; Plant response rating, Blackgrass ([15]; 125 g ai/ha): 30; Plant response rating, Blackgrass ([15]; 500 g ai/ha): 50; Plant response rating, Corn (corn (Zea mays); 125 g ai/ha): 40; Plant response rating, Corn (corn (Zea mays); 500 g ai/ha): 80; Plant response rating, Pigweed ([16]; 125 g ai/ha): 30; Plant response rating, Pigweed ([16]; 500 g ai/ha): 50; Plant response rating, Ragweed ([17]; 125 g ai/ha): 0; Plant response rating, Ragweed ([17]; 500 g ai/ha): 80; Plant response rating, Wheat ([18]; 125 g ai/ha): 30; Plant response rating, Wheat ([18]; 500 g ai/ha): 50 |
| CN1CC(c2cccc(Oc3ccc(C(F)(F)F)cn3)c2)C(C(=O)Nc2cccc(F)c2F)C1=O (single isomer, unassigned) [Compound 44] | 90 | 90 | 30 | 60 | 0 | 70 | 80 | 0 | 30 | 0 | 0 | 0 | 70 | 80 | 80 | 80 | 40 | 30 | 80 | 0 | Plant response rating, Ragweed ([11]; 500 g ai/ha): 0; Plant response rating, Ryegrass, Italian ([12]; 125 g ai/ha): 30; Plant response rating, Ryegrass, Italian ([12]; 500 g ai/ha): 90; Plant response rating, Barnyardgrass ([13]; 125 g ai/ha): 90; Plant response rating, Barnyardgrass ([13]; 500 g ai/ha): 90; Plant response rating, Ducksalad (Flood) [14]: 90; Plant response rating, Blackgrass ([15]; 125 g ai/ha): 30; Plant response rating, Blackgrass ([15]; 500 g ai/ha): 50; Plant response rating, Corn (corn (Zea mays); 125 g ai/ha): 40; Plant response rating, Corn (corn (Zea mays); 500 g ai/ha): 80; Plant response rating, Pigweed ([16]; 125 g ai/ha): 50; Plant response rating, Pigweed ([16]; 500 g ai/ha): 80; Plant response rating, Ragweed ([17]; 125 g ai/ha): 0; Plant response rating, Ragweed ([17]; 500 g ai/ha): 60; Plant response rating, Wheat ([18]; 125 g ai/ha): 0; Plant response rating, Wheat ([18]; 500 g ai/ha): 50 |
| CN1CC(c2cccc(Oc3ccc(F)cc3)c2)C(C(=O)Nc2ccccc2F)C1=O (single isomer, unassigned) [Compound 45] | 90 | 90 | 40 | 60 | 15 | 60 | 60 | 0 | 30 | 0 | 20 | 0 | 80 | 80 | 80 | 80 | 40 | 40 | 70 | 0 | Plant response rating, Ragweed ([11]; 500 g ai/ha): 0; Plant response rating, Ryegrass, Italian ([12]; 125 g ai/ha): 30; Plant response rating, Ryegrass, Italian ([12]; 500 g ai/ha): 80; Plant response rating, Barnyardgrass ([13]; 125 g ai/ha): 90; Plant response rating, Barnyardgrass ([13]; 500 g ai/ha): 90; Plant response rating, Ducksalad (Flood) [14]: 70; Plant response rating, Blackgrass ([15]; 125 g ai/ha): 30; Plant response rating, Blackgrass ([15]; 500 g ai/ha): 30; Plant response rating, Corn (corn (Zea mays); 125 g ai/ha): 0; Plant response rating, Corn (corn (Zea mays); 500 g ai/ha): 50; Plant response rating, Pigweed ([16]; 125 g ai/ha): 30; Plant response rating, Pigweed ([16]; 500 g ai/ha): 60; Plant response rating, Ragweed ([17]; 125 g ai/ha): 0; Plant response rating, Ragweed ([17]; 500 g ai/ha): 30; Plant response rating, Wheat ([18]; 125 g ai/ha): 0; Plant response rating, Wheat ([18]; 500 g ai/ha): 20 |
